# According to patent US20090142429A1, “SILICIBACTER SP. STRAIN USEFUL FOR GENETIC TRANSFORMATION OF MARINE ALGAE AND PRODUCTION OF ANTIBIOTIC AGENTS” (UNIVERSITY OF MARYLAND BIOTECHNOLOGY INSTITUTE, priority 2005, published 2009):
# Legend:
# [1] = tested on: Silicibacter sp. strain TM1040; test: Chemotaxis plate screening assay (change in motile colony morphology); type: cell-based; conditions: for Change in morphology with carbon source Alanine / Change in morphology with carbon source Glucose / Change in morphology with carbon source Glycerol / Change in morphology with carbon source Succinate: BM motility agar; for Change in morphology with carbon source Alanine: alanine as single carbon source; for Change in morphology with carbon source Glucose: glucose as single carbon source; for Change in morphology with carbon source Glycerol: glycerol as single carbon source; for Change in morphology with carbon source Succinate: succinate as single carbon source; on Change in morphology with carbon source Alanine: key: −: minus indicates no change compared to distilled water or no attractant controls; +: either one or two pluses indicates moderate to strong alteration in motile colony phenotype (respectively); ++: either one or two pluses indicates moderate to strong alteration in motile colony phenotype (respectively); on Change in morphology with carbon source Glucose: key: −: minus indicates no change compared to distilled water or no attractant controls; +: either one or two pluses indicates moderate to strong alteration in motile colony phenotype (respectively); ++: either one or two pluses indicates moderate to strong alteration in motile colony phenotype (respectively); on Change in morphology with carbon source Glycerol: key: −: minus indicates no change compared to distilled water or no attractant controls; +: either one or two pluses indicates moderate to strong alteration in motile colony phenotype (respectively); ++: either one or two pluses indicates moderate to strong alteration in motile colony phenotype (respectively); on Response: change in motile colony morphology of TM1040 in response to attractants, compared to the control: key: −: minus indicates no change compared to distilled water or no attractant controls; +: either one or two pluses indicates moderate to strong alteration in motile colony phenotype (respectively); ++: either one or two pluses indicates moderate to strong alteration in motile colony phenotype (respectively)
# Description: Following 36 h of incubation, a putative attractant was placed approximately 5 cm from the site of inoculation (or 2.5 cm in front of the periphery of motile cells). Possible chemoattractant compounds were administered as either a sterile solid or concentrated stock solutions. The cells were further incubated for 16 h to allow for additional outward movement, at which time measurement of diameter, shape, and chemotaxis rings internal to the motile colony were made.
# […] Bacteria inoculated into the center of the agar consume nutrients and create a concentration gradient that increases outward from the point of inoculation. The bacteria sense the increasing gradient and swim outwards, seeking higher concentrations of nutrients, which is manifested as a symmetrical “motile” colony. If an attractant is placed at a short distance in front of the advancing motile colony, it forms a second gradient moving towards the oncoming cells that will affect the symmetry of the colony by reducing the net outward swimming of the bacteria.
# [2] = tested on: Silicibacter sp. strain TM1040; test: Quantitative capillary chemotaxis assay; type: cell-based; conditions: pure compounds, FIG. 12; capillaries filled with 2 μM or 200 μM attractant
# From the text: The cells were pelleted by centrifugation at 4,000×g in a tabletop centrifuge (Centra-CL2; International Equipment Company), the supernatant was discarded, and the pellet was resuspended in chemotaxis buffer (CB) (15 g of ASW, 6 g of Tris-HCl per liter [pH 7.6]) to the same OD. Five hundred microliters of washed cells was placed in one of the wells of the Palleroni chamber, followed by a 1-μl capillary (Microcaps; Drummond) filled with a putative attractant diluted in CB. This process was repeated for each of the four wells in the chamber. A capillary filled with CB only was included in each experiment as a negative control. Depending on the experiment, capillaries remained in the chambers for 0.5 to 2 h, after which time they were removed, and the contents of each capillary were serially diluted in CB. Final dilutions were then spread on HIASW agar plates and incubated for 16 h at 30° C. The concentration of TM1040 in each capillary was derived by counting the CFU on each plate and multiplying by the appropriate dilution factor. […]
# [3] = glucose background (BM glucose)
Compound,"Response: change in motile colony morphology of TM1040 in response to attractants, compared to the control ([1]; BM glycerol motility agar)",Change in morphology with carbon source Alanine [1],Change in morphology with carbon source Glucose [1],Change in morphology with carbon source Glycerol [1],Change in morphology with carbon source Succinate [1],chemotactic response of TM1040 in plate assay ([1]; BM glycerol motility agar),response factor (mean) [2],"chemotactic response of TM1040 in plate assay [1, 3]"
C[C@H](N)C(=O)O [Alanine],++,−,−,++,+,,,
O=C(O)CCC(=O)C(=O)O [Alpha-ketoglutarate],−,−,−,−,+,no response,none were found to be significant chemoattractants,
O=C(O)CC(O)(CC(=O)O)C(=O)O [Citrate],++,,,,,strong positive response,none were found to be significant chemoattractants,
"C[S+](C)[O-] [DMSO, dimethyl sulfoxide]",−,−,−,−,−,,,
O=C[C@H](O)[C@@H](O)[C@@H](O)[C@H](O)CO [Galactose],++,−,−,++,+,responded positively,,
NCC(=O)O [Glycine],+,,,,,,ca. 3.5,
OC[C@H]1O[C@@H](O[C@H]2[C@H](O)[C@@H](O)C(O)O[C@@H]2CO)[C@H](O)[C@@H](O)[C@H]1O (some centres unmarked) [Lactose],−,−,−,−,−,,,
"O=C(O)CCS [MPA, 3-mercaptopropionate]",+,,,,,only weakly,,
CC(=O)N[C@H]1C(O)O[C@H](CO)[C@@H](O)[C@@H]1O (some centres unmarked) [N-acetylglucosamine],++,+,−,++,+,responded positively,,
O=C(O)CCC(=O)O [Succinate],+,++,+,+,−,mild response,none were found to be significant chemoattractants,moderate response
C=CC(=O)O [acrylate],++,+,+,++,++,responded strongly,,moderate response
O=C[C@@H](O)[C@H](O)[C@H](O)CO [arabinose],−,,,,,no detectable change in the appearance of the motile colony,,
N=C(N)NCCC[C@H](N)C(=O)O [arginine],++,,,,,,,
NC(=O)C[C@H](N)C(=O)O [asparagine],++,,,,,,,
N[C@@H](CC(=O)O)C(=O)O [aspartic acid],++,,,,,,,
N[C@@H](CS)C(=O)O [cysteine],+,,,,,,,
O=C(CO)[C@@H](O)[C@H](O)[C@H](O)CO [fructose],−,,,,,no detectable change in the appearance of the motile colony,,
C[C@H](O)[C@@H](O)[C@@H](O)[C@H](O)C=O [fucose],−,,,,,,,

Compound,"Response: change in motile colony morphology of TM1040 in response to attractants, compared to the control ([1]; BM glycerol motility agar)",Change in morphology with carbon source Alanine [1],Change in morphology with carbon source Glucose [1],Change in morphology with carbon source Glycerol [1],Change in morphology with carbon source Succinate [1],chemotactic response of TM1040 in plate assay ([1]; BM glycerol motility agar),response factor (mean) [2],"chemotactic response of TM1040 in plate assay [1, 3]"
O=C(O)/C=C/C(=O)O [fumurate],++,,,,,strong positive response,,
N[C@@H](CCC(=O)O)C(=O)O [glutamic acid],++,−,−,++,+,,,
OCC(O)CO [glycerol],+,,,,,,,
N[C@@H](Cc1c[nH]cn1)C(=O)O [histidine],+,,,,,,,
CC[C@H](C)[C@H](N)C(=O)O [isoleucine],+,,,,,,,
CC(C)C[C@H](N)C(=O)O [leucine],+,,,,,,,
NCCCC[C@H](N)C(=O)O [lysine],+,−,−,+,−,,ca. 3.5,
OC[C@H]1O[C@H](O[C@H]2[C@H](O)[C@@H](O)[C@H](O)O[C@@H]2CO)[C@H](O)[C@@H](O)[C@@H]1O [maltose],+,++,−,+,++,responded positively,,
N[C@@H](Cc1ccccc1)C(=O)O [phenylalanine],++,,,,,,,
O=C(O)[C@@H]1CCCN1 [proline],++,,,,,,,
O=C[C@H](O)[C@H](O)[C@H](O)CO [ribose],−,,,,,,,
N[C@@H](CO)C(=O)O [serine],+,,,,,,,
OC[C@H]1O[C@@](CO)(O[C@H]2O[C@H](CO)[C@@H](O)[C@H](O)[C@H]2O)[C@@H](O)[C@@H]1O [sucrose],++,,,,,responded positively,,
C[C@@H](O)[C@H](N)C(=O)O [threonine],++,,,,,,,
N[C@@H](Cc1c[nH]c2ccccc12)C(=O)O [tryptophan],+,,,,,,,
N[C@@H](Cc1ccc(O)cc1)C(=O)O [tyrosine],+,,,,,,,
O=C[C@H](O)[C@@H](O)[C@H](O)CO [xylose],−,,,,,,,
